Results reported in US6028112A, “Spirocyclopropyl fluorenes as melatonergic agents” (Bristol-Myers Squibb Company, priority 1998, dated 2000).

Columns and labels:
[1] = test system: circadian rhythms in rats; settings: exogenous administration, Cassone, et al., 1986; cited from earlier work
melatonin ML1A receptor = target: T1, melatonin ML1A receptor (Homo sapiens, UniProt P48039); experiment: Melatonergic receptor binding activity (2-[125I]-iodomelatonin, membrane homogenates of NIH-3T3 cells expressing the ML1A receptor); settings: 37° C., 1 hour, class symbols, read-out: Melatonin Binding Affinity (IC50 Range)
T1 construct: expressed in transfected cells; membrane homogenates
Method: Melatonergic Receptor Binding Activity
(a) TME=50 mM Tris buffer containing 12.5 mM MgCl2, and 2 mM EDTA, pH 7.4 at 37° C. with concentrated HCl.
(b) Wash buffer: 20 mM Tris base containing 2 mM MgCl2. pH 7.4 at room temperature.
(c) 10^-4 M melatonin (10^-5 M final concentration).
(d) 2-[^125 I]-iodomelatonin, […] final concentration
2. Membrane Homogenates. The melatonin ML1A receptor cDNA was subcloned into pcDNA3 and introduced into NIH-3T3 cells using Lipofectamine. Transformed NIH-3T3 cells resistant to geneticin (G-418) were isolated, and single colonies expressing high levels of 2[^125 Iiodomelatonin binding were isolated. Cells are maintained in DMEM supplemented with 10% calf serum and G-418 (0.5 g/liter). Cells are grown to confluency in T-175 flasks, scraped using Hank's balanced salt solution, and frozen at -80° C. For preparing membrane homogenates,pellets are thawed on ice, and resuspended in TME buffer in the presence of 10 μg/ml aprotinin and leupeptin, and 100 μM phenylmethylsulfonylfluoride. The cells were then homogenized using a dounce homogenizer, and centrifuged. The resulting pellet was resuspended with dounce homogenizer in TME (supplemented with the above protease inhibitors) and frozen. On the day of assay, the small aliquot was thawed on ice and resuspended in ice cold TME (1:50-1:100 v/v) and held on ice until assayed.
3. Incubation: 37° C. for 1 hour. Reaction is terminated by filtration. Filters are washed 3 times.
4. References: Reppert, S. M., and Ebisawa, R. (1994). Neuron, 13, 1177-1185.

T1 sequence (P48039 whole entry): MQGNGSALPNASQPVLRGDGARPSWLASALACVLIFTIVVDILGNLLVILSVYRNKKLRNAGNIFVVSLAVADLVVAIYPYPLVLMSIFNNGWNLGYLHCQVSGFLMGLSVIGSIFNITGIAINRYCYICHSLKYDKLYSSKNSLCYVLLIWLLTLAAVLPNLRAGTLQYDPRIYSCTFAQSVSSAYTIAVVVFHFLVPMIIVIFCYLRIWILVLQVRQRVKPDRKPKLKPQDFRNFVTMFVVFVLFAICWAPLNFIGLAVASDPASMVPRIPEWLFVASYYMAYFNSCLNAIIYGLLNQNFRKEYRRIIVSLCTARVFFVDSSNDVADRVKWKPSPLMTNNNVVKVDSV

SMILES	IC50 (melatonin ML1A receptor)	synchronization of circadian rhythms [1]
COc1ccc2[nH]cc(CCNC(C)=O)c2c1 [melatonin, N-acetyl-5-methoxytryptamine]		found to synchronize circadian rhythms in rats
COc1ccc2c(c1)C1(CC1CNC(=O)C(C)(C)C)c1cc(OC)ccc1-2 (centres unmarked) [Example 10, N-[(2',7'-Dimethoxyspiro[cyclopropane-1,9'-[9H]fluoren]-2-yl)methyl]-2,2-dimethylpropanamide]	100 to 250 nM	
COc1ccc2c(c1)C1(CC1CNC(=O)C1CCC1)c1cc(OC)ccc1-2 (centres unmarked) [Example 9, N-[(2',7'-Dimethoxyspiro[cyclopropane-1,9'-[9H]fluoren]-2-yl)methyl]-cyclobutane carboxamide]	10 to 100 nM	
COc1ccc2c(c1)C1(CC1CNC(=O)C1CC1)c1cc(OC)ccc1-2 (centres unmarked) [Example 8, N-[(2',7'-Dimethoxyspiro[cyclopropane-1,9'-[9H]fluoren]-2-yl)methyl]cyclopropane carboxamide]	< 10 nM	
COc1ccc2c(c1)C1(CC1CNC(C)=O)c1cc(OC)ccc1-2 (centres unmarked) [Example 6, N-[(2',7'-Dimethoxyspiro[cyclopropane-1,9'-[9H]fluoren]-2-yl)methyl]acetamide]	< 10 nM	
CCC(=O)NCC1CC12c1cc(F)ccc1-c1ccc(OC)cc12 (stereo not drawn) [Example 13, trans-N-[(2'-Fluoro-7'-methoxy-spiro[cyclopropane-1,9'-[9H]fluoren]-2-yl)methyl]propanamide]	< 10 nM	

More lines, main results first:

IC50 (melatonin ML1A receptor)	SMILES	synchronization of circadian rhythms [1]
< 10 nM	CCC(=O)NCC1CC12c1cc(OC)ccc1-c1ccc(OC)cc12 (centres unmarked) [Example 3, N-[(2',7'-Dimethoxyspiro[cyclopropane-1,9'-[9H]fluoren]-2-yl)methyl]propanamide]	
< 10 nM	CCC(=O)NCC1CC12c1cc(F)ccc1-c1ccc(OC)cc12 (stereo not drawn) [Example 12, cis-N-[(2'-Fluoro-7'-methoxy-spiro[cyclopropane-1,9'-[9H]fluoren]-2-yl)methyl]propanamide]	
< 10 nM	CCCC(=O)NCC1CC12c1cc(OC)ccc1-c1ccc(OC)cc12 (centres unmarked) [Example 7, N-[(2',7'-Dimethoxyspiro[cyclopropane-1,9'-[9H]fluoren]-2-yl)methyl]butanamide]	
< 10 nM	CCC(=O)NCC1CC12c1cc(OC)ccc1-c1ccc(OC)cc12 (single isomer, unassigned; (-)) [Example 4, (-)-N-[(2'7'-Dimethoxyspiro[cyclopropane-1,9'-[9H]fluoren]-2-yl)methyl]propanamide]	
< 10 nM	CCC(=O)NCC1CC12c1cc(OC)ccc1-c1ccc(OC)cc12 (single isomer, unassigned; (+)) [Example 5, (+)-N-[(2',7'-Dimethoxyspiro[cyclopropane-1,9'-[9H]fluoren]-2-yl)methyl]propanamide]	
